Results from US12458605B2, “Lipid nanoparticle” (National University Corporation Hokkaido University, priority 2020, dated 2025).

Legend:
F7 = assay: In vivo F7 knockdown, plasma F7 enzyme activity (BIOPHEN FVII), Balb/c mice; conditions: for F7 enzyme activity (Ratio using MC3 as 1): relative plasma F7 activity of MC3 LNP as 1; for knockdown activity, compared with MC3: F7siRNA-loaded LNP, versus LNP comprising MC3
Outline: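 Plasma factor VII activity was read 24 h after a single intravenous 0.025 mg siRNA/kg dose of siRNA-loaded lipid nanoparticles in 5-week-old female Balb/c mice. Activity is relative to untreated animals (100%) and normalised to the MC3 nanoparticle benchmark (=1).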

[1] = siRNA/mRNA encapsulation rate by Ribogreen reagent (section IV); format: physicochemical; conditions: for % siRNA encapsulation: F7siRNA-loaded LNP, 50:10:38.5:1.5, N/P ratio 6; for % mRNA encapsulation: FlucmRNA-loaded LNP, 50:10:38.5:1.5
Outline: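 Encapsulation % was calculated as (total − surface nucleic acid)/total × 100, with both values measured by RiboGreen fluorescence at 485/528 nm. Total RNA was read on LNPs lysed with 1% Triton X-100 at 1.2 μg/mL, and surface RNA on intact LNPs at 8 μg/mL in TE buffer. Concentrations came from a 0-2.5 μg/mL Triton-containing calibration curve.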

spleen = assay: In vivo Fluc activity of FlucmRNA-loaded LNP by in vivo imaging, spleen; conditions: Balb/c mice, 6 hours; for Fluc Activity in spleen: FlucmRNA-loaded LNP i.v. 0.1 mg mRNA/kg; for Fluc activity in the spleen, compared with CL15F6: 0.1 mg mRNA/kg, versus LNP comprising CL15F6 (Table 7)
Outline: (§1)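 Read-out is average radiance (p/s/cm2/sr, about 560 nm) from whole-animal imaging of liver and spleen 6 h post-dose, after tail-vein luciferin at 1.5 mg/mouse. Dosing was intravenous, 0.1 mg mRNA/kg, in 7-week-old female Balb/c mice.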

[2] = Storage stability of FlucmRNA-loaded LNP at −80, 5, 25 and 40° C.; format: physicochemical; conditions: for quality at production (storage stability criteria): criteria: PDI 0.2 or less, encapsulation 80% or more; for period for which quality remained good, −80° C.: maximum storage period 1 week; for period for which quality remained good, 5° C. / period for which quality remained good, 25° C. / period for which quality remained good, 40° C. (weeks): maximum storage period 5 weeks
Outline: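 Reported period is how long all three criteria hold: encapsulation rate at 80% or more, PDI of 0.2 or less, and mean particle size within +/−20 nm of day-of-preparation value. Particle size, PDI and nucleic acid encapsulation were tracked over time at storage temperatures of −80, 5, 25 and 40° C.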

[3] = Average particle size (ζ-Average) and PDI by dynamic light scattering (Zetasizer Nano ZSP); format: physicochemical
Outline: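 Dynamic light scattering of the particles in PBS(−) gave both the polydispersity index and the ζ-Average mean size.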

liver = assay: In vivo Fluc activity of FlucmRNA-loaded LNP by in vivo imaging, liver; conditions: Balb/c mice, 6 hours; for Fluc Activity in liver: FlucmRNA-loaded LNP i.v. 0.1 mg mRNA/kg; for Fluc activity in the liver, compared with CL15F6: 0.1 mg mRNA/kg, versus LNP comprising CL15F6 (Table 7)
Outline: as §1

[4] = F7siRNA-loaded LNP, 50:10:38.5:1.5, N/P ratio 6
[5] = FlucmRNA-loaded LNP, 50:10:38.5:1.5
[6] = FlucmRNA-loaded LNP, lipid:DSPC:cholesterol:DMG-PEG2K 50:10:38.5:1.5
[7] = i.v. 0.025 mg siRNA/kg, plasma at 24 hours

Row | % siRNA encapsulation [1] | % mRNA encapsulation [1] | PDI [3, 4] | ζ-Average (nm) [3, 4] | PDI [3, 5] | ζ-Average (nm) [3, 6] | period for which quality remained good, −80° C. [2] | period for which quality remained good, 5° C. [2] | period for which quality remained good, 25° C. [2] | period for which quality remained good, 40° C. (weeks) [2] | Compound | F7 enzyme activity (%) (F7; i.v. 0.025 mg siRNA/kg, plasma at 24 hours, untreated mice as 100%) | Fluc Activity in spleen (spleen) | quality at production (storage stability criteria) [2] | Fluc Activity in liver (liver) | F7 enzyme activity (Ratio using MC3 as 1) (F7; [7]) | Fluc activity in the spleen, compared with CL15F6 (spleen) | knockdown activity, compared with MC3 (F7) | Fluc activity in the liver, compared with CL15F6 (liver)
1 | 100.1% | 99.1% | 0.035 | 129.5 nm | 0.037 | 135.00 nm | 1 week | 5 weeks | 5 weeks | 5 weeks | CCCCCCCC(CCCCC)C(=O)OCCCCCCC(O)(CCCCCCOC(=O)C(CCCCC)CCCCCCC)CCCCOC(=O)C1CCN(C)CC1 (stereo not shown) [CL15F 9-5] | – | 5.77E+06 Avg Radiance [p/s/cm2/sr] | – | 1.86E+06 Avg Radiance [p/s/cm2/sr] | 1.11 | higher Fluc activity | – | –
2 | 100.3% | 99.5% | 0.023 | 103.1 nm | 0.010 | 107.60 nm | 1 week | 5 weeks | 5 weeks | 5 weeks | CCCCCCCC(CCCCCCC)C(=O)OCCCCCCC(O)(CCCCCCOC(=O)C(CCCCCCC)CCCCCCC)CCCCOC(=O)C1CCN(C)CC1 [CL15F 9-7] | – | 4.23E+06 Avg Radiance [p/s/cm2/sr] | – | 6.76E+06 Avg Radiance [p/s/cm2/sr] | 0.60 | – | higher knockdown activity | higher Fluc activity
3 | 100.3% | 98.7% | 0.021 | 126.8 nm | 0.030 | 146.10 nm | 1 week | 5 weeks | 5 weeks | 5 weeks | CCCCCCCCC(CCCC)C(=O)OCCCCCCC(O)(CCCCCCOC(=O)C(CCCC)CCCCCCCC)CCCCOC(=O)C1CCN(C)CC1 (stereo not shown) [CL15F 10-4] | – | 3.97E+06 Avg Radiance [p/s/cm2/sr] | – | 2.07E+06 Avg Radiance [p/s/cm2/sr] | 2.00 | – | – | –
4 | 100.5% | 99.4% | 0.003 | 111.7 nm | 0.047 | 113.90 nm | 1 week | 5 weeks | 5 weeks | 5 weeks | CCCCCCCCC(CCCCC)C(=O)OCCCCCCC(O)(CCCCCCOC(=O)C(CCCCC)CCCCCCCC)CCCCOC(=O)C1CCN(C)CC1 (stereo not shown) [CL15F 10-5] | – | 7.55E+06 Avg Radiance [p/s/cm2/sr] | – | 2.70E+06 Avg Radiance [p/s/cm2/sr] | 1.33 | higher Fluc activity | – | –
5 | 100.6% | 99.78% | 0.041 | 99.44 nm | 0.026 | 99.84 nm | 1 week | 5 weeks | 5 weeks | 5 weeks | CCCCCCCCC(CCCCCCCC)C(=O)OCCCCCCC(O)(CCCCCCOC(=O)C(CCCCCCCC)CCCCCCCC)CCCCOC(=O)C1CCN(C)CC1 [CL15F 10-8] | – | 8.42E+06 Avg Radiance [p/s/cm2/sr] | – | 1.35E+07 Avg Radiance [p/s/cm2/sr] | 0.52 | higher Fluc activity | higher knockdown activity | higher Fluc activity

Continued, compound first:

Row | Compound | % siRNA encapsulation [1] | % mRNA encapsulation [1] | PDI [3, 4] | ζ-Average (nm) [3, 4] | PDI [3, 5] | ζ-Average (nm) [3, 6] | period for which quality remained good, −80° C. [2] | period for which quality remained good, 5° C. [2] | period for which quality remained good, 25° C. [2] | period for which quality remained good, 40° C. (weeks) [2] | F7 enzyme activity (%) (F7; i.v. 0.025 mg siRNA/kg, plasma at 24 hours, untreated mice as 100%) | Fluc Activity in spleen (spleen) | quality at production (storage stability criteria) [2] | Fluc Activity in liver (liver) | F7 enzyme activity (Ratio using MC3 as 1) (F7; [7]) | Fluc activity in the spleen, compared with CL15F6 (spleen) | knockdown activity, compared with MC3 (F7) | Fluc activity in the liver, compared with CL15F6 (liver)
6 | CCCCCCCCCCCCCCC(C)C(=O)OCCCCCCC(O)(CCCCCCOC(=O)C(C)CCCCCCCCCCCCCC)CCCCN(CCC)CCC (stereo not shown) [CL4F 16-1] | 94.9% | 65.9% | 0.092 | 64.81 nm | 0.045 | 69.08 nm | – | – | – | – | 103.6% | 1.93E+06 Avg Radiance [p/s/cm2/sr] | Does not meet the criteria for “good” at production | 8.52E+06 Avg Radiance [p/s/cm2/sr] | – | – | – | –
7 | CCCCC(CCCC)C(=O)OCCCCCCC(O)(CCCCCCOC(=O)C(CCCC)CCCC)CCCCOC(=O)C1CCN(C)CC1 [CL15F 6-4] | 91.5% | 66.7% | 0.255 | 230.7 nm | 0.316 | 312.10 nm | – | – | – | – | – | 3.39E+07 Avg Radiance [p/s/cm2/sr] | Does not meet the criteria for “good” at production | 1.84E+06 Avg Radiance [p/s/cm2/sr] | 2.28 | higher Fluc activity | – | –
8 | CCCCCC(CCC)C(=O)OCCCCCCC(O)(CCCCCCOC(=O)C(CCC)CCCCC)CCCCOC(=O)C1CCN(C)CC1 (stereo not shown) [CL15F 7-3] | 95.7% | 64.2% | 0.398 | 287.9 nm | 0.369 | 370.30 nm | – | – | – | – | – | 1.48E+07 Avg Radiance [p/s/cm2/sr] | Does not meet the criteria for “good” at production | 5.34E+06 Avg Radiance [p/s/cm2/sr] | 2.08 | higher Fluc activity | – | –
9 | CCCCCC(CCCCC)C(=O)OCCCCCCC(O)(CCCCCCOC(=O)C(CCCCC)CCCCC)CCCCOC(=O)C1CCN(C)CC1 [CL15F 7-5] | 98.8% | 97.6% | 0.039 | 180.6 nm | 0.007 | 196.00 nm | 0 week | 5 weeks | 5 weeks | 5 weeks | – | 1.37E+07 Avg Radiance [p/s/cm2/sr] | – | 2.15E+06 Avg Radiance [p/s/cm2/sr] | 1.74 | higher Fluc activity | – | –
10 | CCCCCCC(CCCCCC)C(=O)OCCCCCCC(O)(CCCCCCOC(=O)C(CCCCCC)CCCCCC)CCCCOC(=O)C1CCN(C)CC1 [CL15F 8-6] | 100.2% | 99.2% | 0.056 | 121.2 nm | 0.011 | 132.00 nm | 1 week | 5 weeks | 5 weeks | 5 weeks | – | 5.02E+06 Avg Radiance [p/s/cm2/sr] | – | 1.92E+06 Avg Radiance [p/s/cm2/sr] | 1.60 | – | – | –
11 | CCCCCCCC(CCC)C(=O)OCCCCCCC(O)(CCCCCCOC(=O)C(CCC)CCCCCCC)CCCCOC(=O)C1CCN(C)CC1 (stereo not shown) [CL15F 9-3] | 98.3% | 95.5% | 0.172 | 200.4 nm | 0.044 | 196.80 nm | 0 week | 5 weeks | 5 weeks | 5 weeks | – | 7.47E+06 Avg Radiance [p/s/cm2/sr] | – | 1.16E+06 Avg Radiance [p/s/cm2/sr] | 1.50 | higher Fluc activity | – | –
